Measured values as given in patent US20260373193A1, “CARCINOGENESIS REDUCTION WITH PENTAAZA MACROCYLIC RING COMPLEX” (GALERA LABS, LLC, priority 2023, published 2026).
“Also recorded” adds a separate entry of the source.

How the values were obtained:
[1] = test system: female BALB/c mice; assay: long-term survival of irradiated and unirradiated mice treated or not with GC4419; format: in vivo, mouse (female BALB/c)
Protocol: (§1) All animal studies conducted used female BALB/c mice irradiated at 77-91 days of age and housed for a lifetime study to determine rates of carcinogenesis and survival. Animals were purchased from Charles River Laboratory, shipped to Brookhaven National Laboratory, and irradiated with the doses and ion species described below.
(§2) Animals were treated or not with GC4419. Those animals treated with GC4419 followed the following strategy. GC4419 was delivered at a dose of 24 mg/kg (mice were weighed prior to drug delivery) interperitoneally (i.p.) at roughly 45-60 minutes prior to radiation exposure. GC4419 was then provided i.p. for the next 6 days, and the animals were shipped to UT Southwestern (UTSW) Medical Center for temporary quarantine before returning to the animal facility. Upon return to UTSW the animals were treated with GC4419 i.p. weekly for another 11 weeks for a total of 12 weeks on treatment.
(§3) Radiation exposures were whole body. The galactic cosmic ray (GCR) simulation exposures used the beam line at the NASA Space Radiation Laboratory at Brookhaven National Lab (BNL) and the γ-ray exposures used a ^137Cs source at BNL. Subsequent to single dose irradiation, animals were returned to their cages.
(§4) Galactic cosmic rays (GCR) are heavy ion radiation characteristic of the deep space environment, and the GCR simulation (GCRsim) at BNL mimics the complex radiation environment in space. The GCRsim ions used are described in Table 1 below.
FIGS. 1A-1D represent survival in cohorts where animals were exposed to single dose whole-body γ-rays or not irradiated (Control), and treated or not with GC4419. FIGS. 1A-1B present preliminary results through approximately 400-600 days post-irradiation depending on the cohort. FIGS. 1C-1D present final results. As expected, the survival curves show in the animals not treated with GC4419, trends to survival decreasing with increasing γ-ray dose from unirradiated Control to 0.75 Gy (FIGS. 1B & 1D) to 1.5 Gy (FIGS. 1A & 1C).
FIGS. 2A-2D represent survival in cohorts where animals were exposed to single dose whole-body GCRsim radiation or not irradiated (Control), and treated or not with GC4419. FIGS. 2A-2B present results, including preliminary data for unirradiated animals treated with GC4419 (Control+GC4419) cohort through approximately 400 days post-irradiation. FIGS. 2C-2D present final results for all the presented cohorts. As with γ-rays, the survival curves show in the animals not treated with GC4419, trends to survival decreasing with increasing GCRsim dose from unirradiated control to 0.4 Gy to 0.75 Gy. […] This may reflect that GCRsim is a combination of various radiations of varying carcinogenic potential curves.
FIGS. 3A-3C represent survival in cohorts where unirradiated animals (Control) were treated or not with GC4419. FIG. 3A presents results through approximately 400 days post-irradiation with the range of the y-axis covering 95-100% survival. FIG. 3B-3C present final results with the ranges of the y-axis covering 0-100% and 70-100% survival.

[2] = test system: oral mucositis; conditions: head-and-neck cancer patients, chemoradiation, Phase IIB; cited from earlier work
[3] = test system: VEGFr inhibitor-induced pulmonary disease; conditions: rat; cited from earlier work
[4] = test system: kidney damage from cisplatin; conditions: cisplatin therapy for cancer; cited from earlier work
[5] = test system: lung masses; assay: incidence of lung masses at necropsy; format: in vivo, mouse (female BALB/c); conditions: for # Lung Masses / % Yield (percentage mice with lung masses): GC4419 24 mg/kg i.p.; for occurrence of lung masses vs untreated / incidence of lung tumors vs untreated: final results (FIG. 4)
Protocol: as §1, §2, §3, §4
(§5) Pathological endpoints were also considered. Specifically, lung cancer induction, or carcinogenesis, and other tumors that are evident in numbers large enough to consider as secondary endpoints. These endpoints are described in the following tables and figure. The term “masses” is used to describe an abnormal growth, evident by eye, within a given tissue; for example, the term “lung masses” is used to describe abnormal tissues found in the lung that are collected for pathologic examination.
(§6) Given prior experience with the mouse model of radiation-induced carcinogenesis, it is expected that most, if not all, of the lung masses are tumors. For the ovarian masses, some proportion of the masses are expected to be tumors. For observations of hepatosplenomegaly, many of the enlarged livers and spleens may not reflect tumors of those organs. These may, however, may be present as result of hematologic malignancies, such as leukemias, but that was not assessed in this experiment.
Table 2 presents the incidence of lung masses observed at necropsy by treatment cohort, including preliminary data for certain γ-ray cohorts through approximately 600 days post-irradiation and for unirradiated animals treated with GC4419 (Control+GC4419) cohort through approximately 400 days post-irradiation. FIG. 4 presents final results for incidence of lung masses. […] In other words, in part GC4419 could have delayed carcinogenesis.

[6] = test system: hepatosplenomegaly; assay: incidence of hepatosplenomegaly at necropsy; format: in vivo, mouse (female BALB/c); conditions: for # Enlarged (hepatosplenomegaly) / % Yield (percentage of mice with hepatosplenomegaly): GC4419 24 mg/kg i.p.
Protocol: as §1, §2, §3, §4, §5, §6
Table 4 presents the incidence of hepatosplenomegaly observed at necropsy by treatment cohort, in general through approximately 700 days, for certain γ-ray cohorts through approximately 600 days post-irradiation, and for unirradiated animals treated with GC4419 (Control+GC4419) cohort through approximately 400 days post-irradiation.

[7] = test system: acute and sub-chronic radiation damage; platinum therapy kidney damage; conditions: mucositis, pulmonary pneumonitis and fibrosis, liver damage; cited from earlier work

[Cl][Mn][Cl].c1cc2nc(c1)CN[C@H]1CCCC[C@@H]1NCCN[C@H]1CCCC[C@@H]1NC2 [GC4419]
survival vs irradiated untreated ([1]; GCRsim 0.4 Gy, 24 mg/kg i.p., final results): neither increases nor decreases survival | survival vs irradiated untreated ([1]; GCRsim 0.75 Gy, 24 mg/kg i.p., final results, p<0.05): statistically significantly increased survival | survival vs unirradiated untreated ([1]; unirradiated (Control), 24 mg/kg i.p., final results, p<0.01 (FIGS. 3A-3C), 24 mg/kg): statistically significantly increased survival; also recorded: appears to increase survival in unirradiated animals | survival, overall ([1]; variety of radiation types and doses): appears to have an effect on survival in animals exposed to a variety of radiation types and doses | survival vs unirradiated animals not treated with GC4419 ([1]; γ-ray 0.75 Gy, 24 mg/kg i.p., final results): equivalent survival to unirradiated animals not treated with GC4419 | survival vs irradiated untreated ([1]; γ-ray 0.75 Gy, 24 mg/kg i.p., final results, p<0.01 (FIG. 1D)): statistically significantly increased survival | survival vs irradiated untreated ([1]; γ-ray 1.5 Gy, 24 mg/kg i.p., final results, p<0.05 (FIG. 1C)): statistically significantly increased survival | oral mucositis [2]: reduce oral mucositis | pulmonary disease [3]: attenuate VEGFr inhibitor-induced pulmonary disease | kidney damage from cisplatin [4]: reduce kidney damage from cisplatin therapy | # Lung Masses ([5]; GCRsim 0.4 Gy, 224 mice): 24 | % Yield (percentage mice with lung masses) ([5]; GCRsim 0.4 Gy, 224 mice, untreated pair 10.0): 10.7% | # Lung Masses ([5]; GCRsim 0.75 Gy, 248 mice): 27 | % Yield (percentage mice with lung masses) ([5]; GCRsim 0.75 Gy, 248 mice, untreated pair 21.0): 10.9% | occurrence of lung masses vs untreated ([5]; GCRsim 0.75 Gy, p<0.01): markedly and statistically significantly decreased occurrence of lung masses | # Lung Masses ([5]; unirradiated (0 Gy), 235 mice, preliminary, approx. 400 days): 1 | % Yield (percentage mice with lung masses) ([5]; unirradiated (0 Gy), 235 mice, preliminary, approx. 400 days, untreated pair 10.6): 0.4% | incidence of lung tumors vs untreated ([5]; unirradiated (Control)): absence of a clear difference | # Lung Masses ([5]; γ-ray 0.75 Gy, 248 mice, preliminary for certain γ-ray cohorts (approx. 600 days)): 15 | % Yield (percentage mice with lung masses) ([5]; γ-ray 0.75 Gy, 248 mice, preliminary for certain γ-ray cohorts (approx. 600 days), untreated pair 14.7): 6.0% | occurrence of lung masses vs untreated ([5]; γ-ray 0.75 Gy, p<0.05): markedly and statistically significantly decreased occurrence of lung masses | # Lung Masses ([5]; γ-ray 1.5 Gy, 248 mice, preliminary for certain γ-ray cohorts (approx. 600 days)): 16 | % Yield (percentage mice with lung masses) ([5]; γ-ray 1.5 Gy, 248 mice, preliminary for certain γ-ray cohorts (approx. 600 days), untreated pair 11.9): 6.5% | incidence of lung tumors vs untreated ([5]; γ-ray 1.5 Gy): absence of a clear difference | # Enlarged (hepatosplenomegaly) ([6]; GCRsim 0.4 Gy, 224 mice, approx. 700 days): 33 | % Yield (percentage of mice with hepatosplenomegaly) ([6]; GCRsim 0.4 Gy, 224 mice, approx. 700 days, untreated pair 13.9): 14.7% | # Enlarged (hepatosplenomegaly) ([6]; GCRsim 0.75 Gy, 248 mice, approx. 700 days): 36 | % Yield (percentage of mice with hepatosplenomegaly) ([6]; GCRsim 0.75 Gy, 248 mice, approx. 700 days, untreated pair 7.7): 14.5% | # Enlarged (hepatosplenomegaly) ([6]; unirradiated (0 Gy), 235 mice, approx. 400 days): 1 | % Yield (percentage of mice with hepatosplenomegaly) ([6]; unirradiated (0 Gy), 235 mice, approx. 400 days, untreated pair 5.1): 0.4% | hepatosplenomegaly incidence vs untreated ([6]; within paired cohorts): no consistent trend to increased or decreased incidence within paired cohorts | # Enlarged (hepatosplenomegaly) ([6]; γ-ray 0.75 Gy, 248 mice, certain γ-ray cohorts approx. 600 days): 9 | % Yield (percentage of mice with hepatosplenomegaly) ([6]; γ-ray 0.75 Gy, 248 mice, certain γ-ray cohorts approx. 600 days, untreated pair 10.6): 3.6% | # Enlarged (hepatosplenomegaly) ([6]; γ-ray 1.5 Gy, 248 mice, certain γ-ray cohorts approx. 600 days): 17 | % Yield (percentage of mice with hepatosplenomegaly) ([6]; γ-ray 1.5 Gy, 248 mice, certain γ-ray cohorts approx. 600 days, untreated pair 7.5): 6.8% | overt acute and sub-chronic radiation damage; platinum therapy kidney damage [7]: reduce overt acute and sub-chronic radiation damage
